Measurements from patent US20030144345A1, “Treatment of metabolic diseases with soraphen derivatives” (priority 2001, published 2003).
pIC50: −log10 of the molar value.

Key:
human ACCβ enzyme = molecular target: T1, human ACCβ enzyme (Homo sapiens, UniProt O00763); assay: Human ACCβ enzyme activity / inhibition assay (radiometric); type: biochemical; details: for Effect on K0.5 of K-citrate / Effect on Vmax of the ACC enzyme reaction: titration of compound at 0.5, 1 and 2 times IC50
T1 construct: The cloning of the full length human muscle-type ACCβ cDNA and expression in HEK293 cells; made in house; host or cells: HEK293 cells (ATCC CRL-1573), plasmid pRF33D
T1 sequence (O00763 whole entry): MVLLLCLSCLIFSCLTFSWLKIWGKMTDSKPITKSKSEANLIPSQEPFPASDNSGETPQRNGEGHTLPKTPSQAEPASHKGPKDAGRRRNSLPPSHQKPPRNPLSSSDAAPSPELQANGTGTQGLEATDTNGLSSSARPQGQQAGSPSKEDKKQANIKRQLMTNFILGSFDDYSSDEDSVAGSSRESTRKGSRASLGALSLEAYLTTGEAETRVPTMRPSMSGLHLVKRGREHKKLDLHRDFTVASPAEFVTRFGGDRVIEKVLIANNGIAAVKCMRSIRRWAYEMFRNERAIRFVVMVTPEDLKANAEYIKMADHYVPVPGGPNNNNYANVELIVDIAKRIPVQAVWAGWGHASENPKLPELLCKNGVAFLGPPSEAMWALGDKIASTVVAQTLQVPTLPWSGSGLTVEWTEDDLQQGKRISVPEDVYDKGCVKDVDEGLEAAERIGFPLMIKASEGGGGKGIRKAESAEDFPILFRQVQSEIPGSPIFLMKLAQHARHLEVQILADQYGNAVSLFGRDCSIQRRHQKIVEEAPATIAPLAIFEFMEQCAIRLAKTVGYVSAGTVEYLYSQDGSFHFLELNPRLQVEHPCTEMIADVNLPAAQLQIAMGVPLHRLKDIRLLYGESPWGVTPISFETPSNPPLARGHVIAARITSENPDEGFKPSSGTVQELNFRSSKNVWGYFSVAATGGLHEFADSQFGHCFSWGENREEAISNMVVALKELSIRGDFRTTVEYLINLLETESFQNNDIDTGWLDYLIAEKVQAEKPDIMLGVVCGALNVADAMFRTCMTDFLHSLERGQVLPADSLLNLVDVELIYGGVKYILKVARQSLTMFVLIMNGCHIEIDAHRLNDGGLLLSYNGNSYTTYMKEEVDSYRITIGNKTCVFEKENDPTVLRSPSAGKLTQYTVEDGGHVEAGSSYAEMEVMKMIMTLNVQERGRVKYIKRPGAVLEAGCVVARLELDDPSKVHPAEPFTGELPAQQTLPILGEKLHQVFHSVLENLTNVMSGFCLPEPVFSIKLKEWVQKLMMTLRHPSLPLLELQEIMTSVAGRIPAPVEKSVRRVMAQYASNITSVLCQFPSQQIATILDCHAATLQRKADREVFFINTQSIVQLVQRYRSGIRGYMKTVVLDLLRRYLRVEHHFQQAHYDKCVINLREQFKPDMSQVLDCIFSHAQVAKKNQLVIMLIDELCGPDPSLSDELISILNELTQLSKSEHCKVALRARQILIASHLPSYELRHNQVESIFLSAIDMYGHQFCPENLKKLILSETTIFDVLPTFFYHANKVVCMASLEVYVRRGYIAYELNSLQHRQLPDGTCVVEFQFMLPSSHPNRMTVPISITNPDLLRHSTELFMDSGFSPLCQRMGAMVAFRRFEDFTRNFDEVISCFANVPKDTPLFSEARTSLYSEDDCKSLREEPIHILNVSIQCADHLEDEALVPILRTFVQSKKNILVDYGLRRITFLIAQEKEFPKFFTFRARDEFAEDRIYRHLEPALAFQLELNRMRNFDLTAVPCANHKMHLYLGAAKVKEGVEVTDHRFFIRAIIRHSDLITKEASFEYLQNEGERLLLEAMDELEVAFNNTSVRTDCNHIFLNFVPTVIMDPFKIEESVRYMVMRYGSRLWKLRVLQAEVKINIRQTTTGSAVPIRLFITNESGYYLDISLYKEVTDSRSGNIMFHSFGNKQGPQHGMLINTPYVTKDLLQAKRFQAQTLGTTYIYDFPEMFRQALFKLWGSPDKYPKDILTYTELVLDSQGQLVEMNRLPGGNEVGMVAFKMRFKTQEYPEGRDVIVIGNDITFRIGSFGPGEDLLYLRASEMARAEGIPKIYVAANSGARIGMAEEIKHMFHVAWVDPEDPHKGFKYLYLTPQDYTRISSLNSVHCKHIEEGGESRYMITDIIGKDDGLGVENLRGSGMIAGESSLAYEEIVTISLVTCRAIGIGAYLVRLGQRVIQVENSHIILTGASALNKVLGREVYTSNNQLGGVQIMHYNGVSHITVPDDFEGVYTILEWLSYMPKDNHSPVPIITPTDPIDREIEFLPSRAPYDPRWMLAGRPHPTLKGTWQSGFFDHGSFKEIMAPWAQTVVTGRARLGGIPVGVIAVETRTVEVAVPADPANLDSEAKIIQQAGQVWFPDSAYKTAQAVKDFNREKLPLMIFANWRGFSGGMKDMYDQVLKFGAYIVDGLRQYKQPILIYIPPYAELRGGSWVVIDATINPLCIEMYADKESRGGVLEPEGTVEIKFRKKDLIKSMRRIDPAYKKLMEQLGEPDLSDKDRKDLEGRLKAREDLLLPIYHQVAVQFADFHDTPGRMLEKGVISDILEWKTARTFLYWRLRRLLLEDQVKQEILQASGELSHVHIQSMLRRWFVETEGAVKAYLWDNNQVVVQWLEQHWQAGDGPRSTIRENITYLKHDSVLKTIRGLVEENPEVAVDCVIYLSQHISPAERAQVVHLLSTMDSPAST
Procedure: The cloning of the full length human muscle-type ACCβ cDNA and expression in HEK293 cells (ATCC, #CRL-1573) was performed as follows. The ACCβ cDNA was amplified by the polymerase chain reaction (PCR) and was cloned using standard recombinant DNA techniques. The PCR reaction was performed with the Expand Long Template PCR System (Roche Molecular Biochemicals, #1 681 8340) and 0.5 ng of cDNA from human skeletal muscle as template. The primers used for PCR amplification were designed on the basis of the published sequence of the human ACCβ cDNA isolated from a human liver cDNA library (Abul-Elheiga et al. J. Biol Chem. 272, 10669-10677, 1997). The sequence of the forward primer ACCB1 was 5′-[…]-3′; it includes a NheI restriction cleavage site for subcloning and a Kozak translation initiation consensus sequence preceding the ATG start codon. The sequence of the reverse primer ACCB8 was 5′-[…]-3′; it includes a stop codon and a XhoI restriction cleavage site for subcloning. The amplified DNA fragment of approximately 7.4 kb was cloned into a mammalian expression vector. The resulting plasmid isolates, pRF33A, B, C, D, and E were individually transfected in human embryonic kidney 293 cells (HEK293) using a standard lipid transfection method. Cell extracts of transfected cells were prepared in a lysis buffer containing 0.4 mg/ml digitonin and enzyme activity was determined using a radiometric ACC activity assay as described below. Plasmid pRF33D gave the highest activity and was chosen for large scale transfections of HEK293 cells and enzyme purification.
Since ACC enzyme activities in crude cell lysates were very low, enrichment of ACCβ enzyme expressed in HEK293 cells was achieved by a single anion exchange chromatography step. Cell lysates were run over a 5 ml Econo Pac High Q column (Bio-Rad, #732-0027). Bound proteins were eluted by a gradient of NaCl from 0 to 1 M in 50 mM Tris-HCl, pH 7.5, 1 mM DTT, 5% glycerol. Fractions containing high ACCβ enzyme activity were pooled and stored at −20° C.
Standard ACCβ enzyme assays, in a total volume of 100 μl, contained 50 mM HEPES-KOH, pH 7.5, 10 mM K-citrate, 10 mM MgSO4, 1 mM ATP, 0.1 mM DTT, 2% DMSO, 0.1 mg/ml fatty acid-free BSA, 0.2 mM acetyl-CoA, 2 mM KHCO3, 0.2 mM [^14C]NaHCO3 (50-60 mCi/mmol) and cell lysate or purified ACCβ enzyme. Reactions were incubated at 37° C. for 45 min. and stopped by the addition of 50 μl of 2 N HCl. Terminated reactions were incubated at 50° C. over night to evaporate non-incorporated [^14C]NaHCO3. [^14C]-labeled malonyl-CoA reaction product was quantitated by liquid scintillation counting after the addition of 20 μl of Microscint 20 (Canberra Packard, #6013621) on a TopCount NXT microplate scintillation counter (Canberra Packard).
Inhibition of ACCβ activity was determined at saturating substrate concentrations with two-fold serial dilutions of test compounds spanning a concentration range of at least two log units. IC50 values were calculated with the GraFit software (Erithacus Software Ltd.). Kinetic parameters (Km, Vmax and K0.5) were determined by varying one substrate (or allosteric effector) in a two-fold serial dilution over a concentration range of at least two log units while keeping all other substrates at constant saturating concentrations. Fitting to the Michaelis-Menten equation (for calculation of Km of substrates) and fitting to the Hill equation (for calculation of K0.5of the allosteric activator K-citrate) was done with the GraFit software. To determine the mode of action of Soraphens, determinations of Km for ATP and acetyl-CoA and of K0.5 for K-citrate were repeated in the absence and in the presence of the three different Soraphens at 0.5, 1 and 2 times their IC50 and the data were fitted to the equation for non-competitive inhibition with the GraFit software.

Wistar rats = assay: In vivo oxidation of [U-14C]palmitate (exhaled 14CO2); set-up: species or system rat; details: 30 mg/kg s.c.
Procedure: Compound (Ia) was tested in normal Wistar rats by two different methods to assess in vivo a) direct effects on fatty acid oxidation by following the conversion of [^14C]-labeled palmitate to ^14CO2 exhaled by the animals and b) effects on total lipid utilization as determined by indirect calorimetry.
a) In vivo oxidation of [U-^14C]palmitate. Male Wistar rats (240-360 g) were given chow food ad libitum. The day before the experiment each animal was singly caged and food was withdrawn 2.5 hours before the experiment. The animals were given [U-^14C]palmitate (5 μCi) dissolved in 500 μl of olive oil by gavage and compound (Ia) (30 mg/kg) or saline (vehicle) by subcutaneous injection. Immediately after receiving [U-^14C]palmitate and compound (Ia) or vehicle, the animals were kept singly in a metabolic chamber during six hours. The chamber was set up to allow quantive recovery of ^14CO2 exhaled by the animals. The chamber consisted of a desiccator with an elevated platform for the rat, an inlet for air at the bottom wall of the vessel. The flow of the air-exchange was controlled by a flow meter connected to a vacuum pump and set to 50 litres/hour. The temperature inside the chamber was kept at 22° C. Exhaled ^14CO2 from the animals was absorbed by a flask containing 500 ml of Carbosorb E (Canberra Packard).

`CO[C@H]1CCCC[C@@H](c2ccccc2)OC(=O)[C@@H](C)C2(O)O[C@H]([C@@H](C)[C@H](O)[C@H]2OC)[C@@H](C)/C=C/[C@H]1OC` [Cpd (Ia), Soraphen A 1-α] was tested, and the pIC50 (human ACCβ enzyme) was 8.52, the “Effect on K0.5 of K-citrate” value (human ACCβ enzyme) was “did not change” and the “Effect on Vmax of the ACC enzyme reaction” value (human ACCβ enzyme) was “dose-dependent decrease”. For the same compound, the “Effect on K0.5 of K-citrate” value (human ACCβ enzyme; listed as Soraphen A 1-α) was “little effect”, the “Effect on Vmax of the ACC enzyme reaction” value (human ACCβ enzyme; listed as Soraphen A 1-α) was “reduced” and the “Duration of effect (entire assessment period)” value (Wistar rats) was 6 h. For the same compound, the “Time after administration at which the effect is apparent” value (Wistar rats) was “approx. 60 min”, the “% increase over vehicle” value (Wistar rats; 5 min) was −15% and the “Accumulated 14CO2 exhaled” value (Wistar rats; 5 min) was 133 +/− 41 cpm. The “% increase over vehicle” value (Wistar rats; 15 min) was −30%, the “Accumulated 14CO2 exhaled” value (Wistar rats; 15 min) was 121 +/− 36 cpm and the “% increase over vehicle” value (Wistar rats; 30 min) was 17%. The “Accumulated 14CO2 exhaled” value (Wistar rats; 30 min) was 211 +/− 32 cpm, the “% increase over vehicle” value (Wistar rats; 60 min) was 41% and the “Accumulated 14CO2 exhaled” value (Wistar rats; 60 min) was 544 +/− 102 cpm. For the same compound, the “% increase over vehicle” value (Wistar rats; 90 min) was 40%, the “Accumulated 14CO2 exhaled” value (Wistar rats; 90 min) was 1440 +/− 90 cpm and the “% increase over vehicle” value (Wistar rats; 120 min) was 56%. For the same compound, the “Accumulated 14CO2 exhaled” value (Wistar rats; 120 min) was 2614 +/− 136 cpm, the “% increase over vehicle” value (Wistar rats; 150 min) was 62% and the “Accumulated 14CO2 exhaled” value (Wistar rats; 150 min) was 4333 +/− 235 cpm. The “% increase over vehicle” value (Wistar rats; 180 min) was 51%, the “Accumulated 14CO2 exhaled” value (Wistar rats; 180 min) was 5729 +/− 397 cpm and the “% increase over vehicle” value (Wistar rats; 240 min) was 56%. For the same compound, the “Accumulated 14CO2 exhaled” value (Wistar rats; 240 min) was 9572 +/− 809 cpm, the “% increase over vehicle” value (Wistar rats; 300 min) was 77% and the “Accumulated 14CO2 exhaled” value (Wistar rats; 300 min) was 13261 +/− 1.445 cpm. The “% increase over vehicle” value (Wistar rats; 360 min) was 60% and the “Accumulated 14CO2 exhaled” value (Wistar rats; 360 min) was 16134 +/− 2.130 cpm.
